Measurements reported in patent US4189433A, “4-Hydroxy-1,2-benzisothiazoles and their manufacture” (BASF Aktiengesellschaft, priority 1977, dated 1980).

Key:
[1] = Stability to light and to air; assay type: physicochemical; settings: compared to 7-amino-4-hydroxy-1,2-benzisothiazole
[2] = biological target: T1, cardiac β1-receptors (Rattus norvegicus, UniProt P18090); assay: β1-sympatholytic action: inhibition of Isoproterenol tachycardia in pithed rats; assay type: in vivo, rat (Sprague-Dawley; settings: Propranolol = 1.00, intravenous
T1 construct: in pithed rats (Sprague-Dawley, Mus rattus; weight 230-280 g); from tissue; host or cells: heart in situ of pithed Sprague-Dawley rats (in vivo)
T1 sequence (P18090 whole entry): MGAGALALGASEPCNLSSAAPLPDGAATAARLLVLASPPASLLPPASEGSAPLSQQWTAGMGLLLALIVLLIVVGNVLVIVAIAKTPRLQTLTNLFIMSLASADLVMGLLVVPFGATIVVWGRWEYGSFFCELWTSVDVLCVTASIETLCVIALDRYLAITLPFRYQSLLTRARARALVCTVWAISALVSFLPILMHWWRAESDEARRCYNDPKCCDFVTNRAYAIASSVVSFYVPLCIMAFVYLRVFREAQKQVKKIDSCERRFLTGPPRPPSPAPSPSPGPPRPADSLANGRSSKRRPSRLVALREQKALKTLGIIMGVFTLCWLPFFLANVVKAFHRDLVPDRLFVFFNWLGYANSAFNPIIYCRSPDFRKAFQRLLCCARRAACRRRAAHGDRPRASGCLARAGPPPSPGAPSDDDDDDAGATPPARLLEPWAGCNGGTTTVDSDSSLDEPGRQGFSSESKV
Excerpt: (§1) The following are examples of compounds of the general formula III and/or of their acid addition salts with a physiologically safe acid: 4-(2-hydroxy-3-isopropylamino-propoxy)-1,2-benzisothiazole (III), 4-(2-hydroxy-3-tert.-butylaminopropoxy)-1,2-benzisothiazole (IV), 4-[2-hydroxy-3-(3-methylpentyl-3-amino)-propoxy]-1,2-benzisothiazole (VII), 4-[2-hydroxy-3-(2-methyl-butyl-2-amino)-propoxy]-1,2-benzisothiazole (VI), 4-[2-hydroxy-3-(2-methyl-3-but-2-ynylamino)-propoxy]-1,2-benzisothiazole (VIII), 4-(2-hydroxy-3-sec.-butylaminopropoxy-1,2-benzisothiazole (V), 4-[2-hydroxy-3-(1-methoxy-propyl-2-amino)-propoxy]-1,2-benzisothiazole (IX) and 4-[2-hydroxy-3-(pentyl-2-amino)-propoxy]-1,2-benzisothiazole (X).

[3] = biological target: T2, β2-receptors on the blood vessels (Rattus norvegicus, UniProt P10608); assay: β2-sympatholytic action: inhibition of Isoproterenol blood pressure reduction in rats under urethane narcosis; assay type: in vivo; settings: for R.A. (relative activity), β2-sympatholytic action: Propranolol = 1.00; for R.A. (relative activity), β2-sympatholytic action / Q (footnote 6; numerically ED 50 β2 / ED 50 β1): intravenous; for Q (footnote 6; numerically ED 50 β2 / ED 50 β1): cardioselectivity quotient, rats
T2 construct: was tested on rats, weighing 230-280 g, under urethane narcosis; from tissue; host or cells: blood vessels in situ of urethane-anaesthetised rats (in vivo)
T2 sequence (P10608 whole entry): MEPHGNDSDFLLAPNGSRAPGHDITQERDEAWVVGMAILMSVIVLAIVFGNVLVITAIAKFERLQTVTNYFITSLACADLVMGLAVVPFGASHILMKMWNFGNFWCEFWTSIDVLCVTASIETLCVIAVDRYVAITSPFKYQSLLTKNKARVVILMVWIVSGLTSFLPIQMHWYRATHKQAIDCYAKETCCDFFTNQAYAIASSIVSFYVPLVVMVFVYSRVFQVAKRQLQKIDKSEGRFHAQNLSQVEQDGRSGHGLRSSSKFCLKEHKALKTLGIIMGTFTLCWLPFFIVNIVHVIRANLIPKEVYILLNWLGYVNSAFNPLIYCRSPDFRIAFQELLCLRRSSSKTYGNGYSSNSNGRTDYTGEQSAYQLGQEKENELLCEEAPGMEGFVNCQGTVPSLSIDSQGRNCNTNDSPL
Excerpt: as §1

[4] = in vivo; settings: mouse
Procedure: (§2) The acute toxicity was determined on groups of 10 or 20 female Swiss mice weighing 20-26 g, the compounds being administered intraperitoneally.

[5] = test system: female Swiss mice; assay: in vivo; settings: mouse
Procedure: as §2

SMILES	stability to light and to air [1]	R.A. (relative activity), β1-sympatholytic action [2]	R.A. (relative activity), β2-sympatholytic action ([3]; rats under urethane narcosis)	Q (footnote 6; numerically ED 50 β2 / ED 50 β1) [3]	selectivity ratio [4]	Therapeutic range, relative [5]	reduction of the mean pressure of the carotid artery, average ([3]; Isoproterenol 0.215 μg/kg i.v., rats under urethane narcosis) [%]
CC(=O)Nc1ccc(OC(C)=O)c2cnsc12 [7-acetamino-4-acetoxy-1,2-benzisothiazole]	increased stability to light and to air	–	–	–	–	–	–
CC(C)NCC(O)COc1cccc2sncc12 (stereo not drawn) [Example III, 4-(2-hydroxy-3-isopropylamino-propoxy)-1,2-benzisothiazole]	–	6.47	2.71	2.21	32700	3.72	–
CC(C)(C)NCC(O)COc1cccc2sncc12 (stereo not drawn) [IV, 4-(2-hydroxy-3-tert.-butylaminopropoxy)-1,2-benzisothiazole]	–	7.55	2.84	2.47	94500	10.76	–
COCC(C)NCC(O)COc1cccc2sncc12 (stereo not drawn) [IX, 4-[2-hydroxy-3-(1-methoxy-propyl-2-amino)-propoxy]-1,2-benzisothiazole]	–	2.48	0.26	8.90	–	3.11	–
CC(C)NCC(O)c1ccc(O)c(O)c1 (stereo not drawn) [Isoproterenol, reference compound]	–	–	–	–	–	–	30
CCC(C)NCC(O)COc1cccc2sncc12 (stereo not drawn) [V, 4-(2-Hydroxy-3-sec.-butylamino-propoxy)-1,2-benzisothiazole]	–	8.04	1.08	6.93	–	7.18	–
CCC(C)(C)NCC(O)COc1cccc2sncc12 (stereo not drawn) [VI, 4-[2-hydroxy-3-(2-methyl-butyl-2-amino)-propoxy]-1,2-benzisothiazole]	–	6.68	1.38	4.48	–	8.92	–
CCC(C)(CC)NCC(O)COc1cccc2sncc12 (stereo not drawn) [VII, 4-[2-hydroxy-3-(3-methylpentyl-3-amino)-propoxy]-1,2-benzisothiazole]	–	3.75	0.94	3.69	–	4.44	–
C#CC(C)(C)NCC(O)COc1cccc2sncc12 (stereo not drawn) [VIII, 4-[2-hydroxy-3-(2-methyl-3-but-2-ynylamino)-propoxy]-1,2-benzisothiazole]	–	5.35	1.98	2.50	–	9.11	–
CCCC(C)NCC(O)COc1cccc2sncc12 (stereo not drawn) [X, 4-[2-hydroxy-3-(pentyl-2-amino)-propoxy]-1,2-benzisothiazole]	–	4.88	0.42	10.70	–	2.72	–
